In US20230234920A1, “Azirine Containing Compounds as Anti-Angiogenesis Agents and a Process for the Preparation Thereof” (COUNCIL OF SCIENTIFIC & INDUSTRIAL RESEARCH, priority 2020, published 2023):

Test system: HUVECs
Experiment: Capillary-like tube formation assay (tubulogenesis)
Format: cell-based, human
Settings: for IC50: Homo sapiens, HUVEC, anti-angiogenic activity, read-out: IC50 value; for remarks: remark on IC50 versus sunitinib
Protocol: FIG. 2 represents effect of Compound 1 on capillary tube formation of HUVECs. Endothelial cells in Matrigel were incubated with ECM basal medium in the presence of compound 1 at the indicated concentrations for 6 h. Cell viability was assessed by Calcein-AM dye added few min. before the completion of 6 h. then photographs at 10×magnification were taken using an inverted microscope. The tubule length of HUVECs was quantified by Leica QWin software. Tubule network formation is expressed as a percentage of that vehicle (0.1% DMSO) treated cells (control).
FIG. 9 represents effect of racemic mixture (chiral isomer 1-1 and chiral isomer 2-1) of Compound 1 on capillary tube formation of HUVECs. Endothelial cells seeded in matrigel were incubated at the indicated concentrations of compound 1 racemic mixtures (1-1 and 2-1) with ECM basal medium for 6 h. Calcein-AM treatment was added to the ECs few minutes before completion of 6 h and pictures were captured using an inverted microscope at 10×magnification. The tubular structures of HUVECs were measured using Leica QWin software and tubulogenesis was expressed as a % of that vehicle (0.1% DMSO) treated cells (control) well.
HUVEC cells were incubated with or without sunitinib (20 nM) for 6 h at indicated concentrations of chiral isomers of Compound 1 (1-1 and 2-1). Photographs were taken using an inverted microscope at 10×magnification after Calcein-AM treatment to the ECs few minutes before completion of 6 h. The tubule length of HUVECs was quantified by Leica QWin software represented as a % of that vehicle (0.1% DMSO) treated cells (control) well.
To examine the effect of Compound 1 on angiogenesis, capillary tube formation assay was performed on regular or reduced growth factor Matrigel, taking VEGF (50 ng/mL) treated cells as a positive control and sunitinib (50 nM) as a negative control (FIG. 2). HUVECs seeded onto the matrigel with compound 1 at different concentrations of (10 μM, 5 μM, 1 μM, 800 nM, 500 nM, 250 nM, 125 nM, 75 nM, 50 nM, 25 nM and 10 nM) were incubated for six hours.
HUVECs (Human Umbilical Vein Endothelial Cells) were seeded onto the pre-coated matrigel (CORNING; 354230) in 96 wells plate at the rate of 11000 cells/well in incomplete ECM basal medium. Control group received vehicle, VEGF at 50 ng/mL as a positive and sunitinib at 50 nM as a negative control were used. Compound 1 at different dose concentrations (10 μM, 5 μM, 1 μM, 800 nM, 500 nM, 250 nM, 100 nM, 75 nM, 50 nM and 25 nM) were employed on seeded HUVECs in incomplete medium. Post 6 h of incubation Calcein-AM (Invitrogen) was added to all the respective groups and then the tubule pattern was observed and photographs were taken using an inverted fluorescent microscope (DM 6000, Leica Microsystems, USA). Relative tubule lengths were measured using Leica Q-Win software version 3.5.1. (Leica Microsystems, Switzerland).

[1] = endothelial tubule network assay

Question: With `C=CCCCC1=NC1C(=O)OCC` (stereo not drawn) [Compound 2, Ethyl 3-(pent-4-en-1-yl)-2H-azirine-2-carboxylate] as the compound, how does the IC50 [1] read?
Answer: 250 nM

Question: Which IC50 value (endothelial tubule network assay, result in words) does the source give for `CCOC(=O)C1N=C1CCC=C(C)C` (stereo not drawn) [Compound 4, Ethyl 3-(4-methylpent-3-en-1-yl)-2H-azirine-2-carboxylate] here?
Answer: Not Active

Question: With `CCOC(=O)C1N=C1CC/C=C(\C)CCC=C(C)C` (stereo not drawn) [Compound 5, Ethyl (E)-3-(4,8-dimethylnona-3,7-dien-1-yl)-2H-azirine-2-carboxylate] as the compound, how does the IC50 [1] read?
Answer: 350 nM

Question: Which IC50 [1] does the source give for `CCOC(=O)C1N=C1CCc1ccccc1` (stereo not drawn) [Compound 6, Ethyl 3-phenethyl-2H-azirine-2-carboxylate] here?
Answer: 5000 nM

Question: How did the IC50 [1] turn out when `CCOC(=O)C1N=C1CCc1ccc(C)cc1` (stereo not drawn) [Compound 7, Ethyl 3-(4-methylphenethyl)-2H-azirine-2-carboxylate] was run?
Answer: 4000 nM

Question: With `CCOC(=O)C1N=C1CCc1ccc(C(C)(C)C)cc1` (stereo not drawn) [Compound 9, Ethyl 3-(4-(tert-butyl)phenethyl)-2H-azirine-2-carboxylate] as the compound, how does the IC50 [1] read?
Answer: 550 nM

Question: How did the IC50 [1] turn out when `CCOC(=O)C1N=C1CCc1ccc(F)cc1` (stereo not drawn) [Compound 10, Ethyl 3-(4-fluorophenethyl)-2H-azirine-2-carboxylate] was run?
Answer: 600 nM

Question: Which IC50 [1] does the source give for `CCOC(=O)C1N=C1CC/C=C/c1ccccc1` (stereo not drawn) [Compound 11, Ethyl (E)-3-(4-phenylbut-3-en-1-yl)-2H-azirine-2-carboxylate] here?
Answer: 450 nM

Question: For `CCOC(=O)C1N=C1CCc1cc(OC)c(OC)c(OC)c1` (stereo not drawn) [Compound 12, Ethyl 3-(3,4,5-trimethoxyphenethyl)-2H-azirine-2-carboxylate], which IC50 [1] is on record?
Answer: 200 nM

Question: For `CCOC(=O)C1N=C1/C=C/c1ccc(OC)cc1` (stereo not drawn) [Compound 13, Ethyl (E)-3-(4-methoxystyryl)-2H-azirine-2-carboxylate], which IC50 [1] is on record?
Answer: 100 nM

Question: And the remarks?
Answer: comparable to sunitinib

Question: `COC(=O)C1N=C1CCc1ccc(OC)cc1` (stereo not drawn) [Compound 14, Methyl 3-(4-methoxyphenethyl)-2H-azirine-2-carboxylate] was tested. Which IC50 [1] did it give?
Answer: 750 nM

Question: How did the IC50 [1] turn out when `CCOC(=O)C1N=C1CCc1ccc(Br)cc1` (stereo not drawn) [Compound 15, Ethyl 3-(4-bromophenethyl)-2H-azirine-2-carboxylate] was run?
Answer: 800 nM

Question: Which IC50 [1] does the source give for `CCOC(=O)C1N=C1CCc1ccc(I)cc1` (stereo not drawn) [Compound 16, Ethyl 3-(4-iodophenethyl)-2H-azirine-2-carboxylate] here?
Answer: 800 nM

Question: `COc1ccc(CCC2=NC2C(=O)OC(C)(C)C)cc1` (stereo not drawn) [Compound 17, tert-Butyl 3-(4-methoxyphenethyl)-2H-azirine-2-carboxylate] was tested. Which IC50 [1] did it give?
Answer: 400 nM

Question: `COc1ccc(CC2(C(=O)OCc3ccccc3)N=C2C)cc1` (stereo not drawn) [Compound 18, Benzyl 2-(4-methoxybenzyl)-3-methyl-2H-azirine-2-carboxylate] was tested. Which IC50 [1] did it give?
Answer: 400 nM

Question: With `CCCOC(=O)C1N=C1CCc1ccc(OC)cc1` (stereo not drawn) [Compound 19, Propyl 3-(4-methoxyphenethyl)-2H-azirine-2-carboxylate] as the compound, how does the IC50 [1] read?
Answer: 800 nM

Question: With `COc1ccc(CCC2=NC2C(=O)OC(C)C)cc1` (stereo not drawn) [Compound 20, Isopropyl 3-(4-methoxyphenethyl)-2H-azirine-2-carboxylate] as the compound, how does the IC50 [1] read?
Answer: 750 nM

Question: For `COc1ccc(CCC2=NC2C(=O)OCC(C)C)cc1` (stereo not drawn) [Compound 21, Isobutyl 3-(4-methoxyphenethyl)-2H-azirine-2-carboxylate], which IC50 [1] is on record?
Answer: 750 nM

Question: With `CCC(C)OC(=O)C1N=C1CCc1ccc(OC)cc1` (stereo not drawn) [Compound 22, sec-Butyl 3-(4-methoxyphenethyl)-2H-azirine-2-carboxylate] as the compound, how does the IC50 [1] read?
Answer: 600 nM

Question: For `CCCCCOC(=O)C1N=C1CCc1ccc(OC)cc1` (stereo not drawn) [Compound 23, Pentyl 3-(4-methoxyphenethyl)-2H-azirine-2-carboxylate], which IC50 [1] is on record?
Answer: 600 nM

Question: `COc1ccc(CCC2=NC2C(=O)OCCC(C)C)cc1` (stereo not drawn) [Compound 24, Isopentyl 3-(4-methoxyphenethyl)-2H-azirine-2-carboxylate] was tested. Which IC50 [1] did it give?
Answer: 700 nM

Question: Which IC50 [1] does the source give for `COCCOC(=O)C1N=C1CCc1ccc(OC)cc1` (stereo not drawn) [Compound 25, 2-Methoxyethyl 3-(4-methoxyphenethyl)-2H-azirine-2-carboxylate] here?
Answer: 700 nM

Question: With `C=CCOC(=O)C1N=C1CCc1ccc(OC)cc1` (stereo not drawn) [Compound 26, Allyl 3-(4-methoxyphenethyl)-2H-azirine-2-carboxylate] as the compound, how does the IC50 [1] read?
Answer: 500 nM

Question: With `CCOC(=O)C1N=C1CCc1ccc2ccccc2c1` (stereo not drawn) [Compound 27, Ethyl 3-(2-(naphthalen-2-yl)ethyl)-2H-azirine-2-carboxylate] as the compound, how does the IC50 [1] read?
Answer: 100 nM

Question: What about the remarks of the same compound?
Answer: comparable to sunitinib

Question: Which results are given for `CCOC(=O)C1N=C1CCc1ccc(OC(F)(F)F)cc1` (stereo not drawn) [Compound 28, Ethyl 3-(4-(trifluoromethoxy)phenethyl)-2H-azirine-2-carboxylate]?
Answer: IC50 [1]: 50 nM; remarks: comparable to sunitinib

Question: Which IC50 [1] does the source give for `CCCCCCCCOC(=O)C1N=C1CCc1ccc(OC)cc1` (stereo not drawn) [Compound 29, Octyl 3-(4-methoxyphenethyl)-2H-azirine-2-carboxylate] here?
Answer: 250 nM

Question: Which IC50 [1] does the source give for `CCOC(=O)C1N=C1CCC1CCCO1` (stereo not drawn) [Compound 30, Ethyl 3-(2-(tetrahydrofuran-2-yl)ethyl)-2H-azirine-2-carboxylate] here?
Answer: 250 nM

Question: Which IC50 [1] does the source give for `CCOC(=O)C1N=C1CCc1ccc(C#N)cc1` (stereo not drawn) [Compound 31, Ethyl 3-(4-cyanophenethyl)-2H-azirine-2-carboxylate] here?
Answer: 250 nM

Question: `CCCCOc1ccc(CCC2=NC2C(=O)OCC)cc1` (stereo not drawn) [Compound 32, Ethyl 3-(4-butoxyphenethyl)-2H-azirine-2-carboxylate] was tested. Which IC50 [1] did it give?
Answer: 50 nM

Question: What about the remarks of the same compound?
Answer: comparable to sunitinib

Question: How did the IC50 [1] turn out when `CCOC(=O)C1N=C1CCc1c2ccccc2cc2ccccc12` (stereo not drawn) [Compound 33, Ethyl 3-(2-(anthracen-9-yl)ethyl)-2H-azirine-2-carboxylate] was run?
Answer: 50 nM

Question: What about the remarks of the same compound?
Answer: comparable to sunitinib

Question: For `CCOC(=O)C1(C(=O)OCC)N=C1CCc1ccc(OC)cc1` [Compound 35, Diethyl 3-(4-methoxyphenethyl)-2H-azirine-2,2-dicarboxylate], which IC50 [1] is on record?
Answer: 250 nM

Question: With `C=Cc1ccc(CCC2=NC2C(=O)OCC)cc1` (stereo not drawn) [Compound 36, Ethyl 3-(4-vinylphenethyl)-2H-azirine-2-carboxylate] as the compound, how does the IC50 [1] read?
Answer: 250 nM

Question: For `CCOC(=O)C1N=C1CCCc1ccc2c(c1)CCO2` (stereo not drawn) [Compound 37, Ethyl-3-(3-(2,3-dihydrobenzofuran-5-yl)propyl)-2H-azirine-2-carboxylate], which IC50 [1] is on record?
Answer: 50 nM

Question: What about the remarks of the same compound?
Answer: comparable to sunitinib

Question: What does the source list for `CCOC(=O)C1N=C1CCc1cn(C(=O)OC(C)(C)C)c2ccccc12` (stereo not drawn) [Compound 38, tert-Butyl-3-(2-(2-(ethoxycarbonyl)-2H-azirin-3-yl)ethyl)-1H-indole-1-carboxylate]?
Answer: IC50 [1]: 75 nM; remarks: comparable to sunitinib

Question: Which IC50 [1] does the source give for `CCOC(=O)C1N=C1CCc1ccc2c(c1)CCO2` (stereo not drawn) [Compound 39, Ethyl 3-(2-(2,3-dihydrobenzofuran-5-yl)ethyl)-2H-azirine-2-carboxylate] here?
Answer: 2500 nM

Question: With `CCOC(=O)C1N=C1CCCc1ccc2occc2c1` (stereo not drawn) [Compound 40, Ethyl-3-(3-(benzofuran-5-yl)propyl)-2H-azirine-2-carboxylate] as the compound, how does the IC50 [1] read?
Answer: 500 nM

Question: With `CCOC(=O)C1N=C1CCc1ccc2c(c1)OCO2` (stereo not drawn) [Compound 41, Ethyl 3-(2-(benzo[d][1,3]dioxol-5-yl)ethyl)-2H-azirine-2-carboxylate] as the compound, how does the IC50 [1] read?
Answer: 1000 nM

Question: What does the source list for `CCOC(=O)C1N=C1CCCCc1ccc2c(c1)CCO2` (stereo not drawn) [Compound 42, Ethyl 3-(4-(2,3-dihydrobenzofuran-5-yl)butyl)-2H-azirine-2-carboxylate]?
Answer: IC50 [1]: 25 nM; remarks: comparable to sunitinib

Question: For `CCOC(=O)C1N=C1CCCc1ccc2c(c1)OCO2` (stereo not drawn) [Compound 43, Ethyl 3-(3-(benzo[d][1,3]dioxol-5-yl)propyl)-2H-azirine-2-carboxylate], which IC50 [1] is on record?
Answer: 250 nM

Question: For `CCOC(=O)C1N=C1CCCc1ccc2oc3ccccc3c2c1` (stereo not drawn) [Compound 44, Ethyl 3-(3-(dibenzo[b,d]furan-2-yl)propyl)-2H-azirine-2-carboxylate], which IC50 [1] is on record?
Answer: 250 nM

Question: How did the IC50 [1] turn out when `CCOC(=O)C1N=C1CCCc1ccc2c(c1)CCCO2` (stereo not drawn) [Compound 45, Ethyl 3-(3-(chroman-6-yl)propyl)-2H-azirine-2-carboxylate] was run?
Answer: 100 nM

Question: And the remarks?
Answer: comparable to sunitinib

Question: Which IC50 [1] does the source give for `CCOC(=O)C1N=C1CCc1ccc(N(C)C)cc1` (stereo not drawn) [Compound 47, Ethyl 3-(4-(dimethylamino)phenethyl)-2H-azirine-2-carboxylate] here?
Answer: 500 nM
